Values joined by “and” are separate entries in the source; they are usually repeats but may differ in a detail not shown here. Identical values can stand only once.
Columns and labels:
[1] = system: dogs with chronic renal failure; assay: Therapeutic effect on dogs with chronic renal failure (blood creatinine); type: in vivo, dog; details: change before/after
Procedure: An experiment was conducted to determine the therapeutic effect and optimal dosage of 5-hydroxy-1-methylimidazolidine-2,4-dione in animal kidney disease. Dogs (5 dogs per group) diagnosed with chronic renal failure and with a blood creatinine concentration of 1.4 mg/dL or higher were treated with 5-hydroxy-methylimidazolidine-2,4-dione at […] of 0, 12.5, 25, 50, and 100 mg/kg for 2 months, and the change in blood creatinine concentration (AsCr) before and after administration was determined.

[2] = system: beagles; assay: 13-week repeated oral toxicity: observation of general symptoms; type: in vivo; details: repeated oral once a day for 13 weeks
Procedure: Furthermore, the present inventors performed a toxicity test on 5-hydroxy-1-methylimidazolidine-2,4-dione in beagles. Toxicity tests were conducted based on single oral administration and repeated oral administration for 13 weeks. The stability of the compound was analyzed by evaluating the analysis items including clinical symptoms, weight, feed intake, blood test, urine and eye test during the administration period.
General symptoms (such as vomiting, salivation, diarrhea, and abnormal behavior) and death were observed daily during the 13-week test period, starting from the day before administration, and abnormalities were recorded in clinical symptoms.

[3] = 13-week repeated oral toxicity: weight measurement; type: in vivo, beagle
Procedure: During the 13-week test period starting from the day before administration, the weight was measured a total of 15 times before administration (pre), before administration on the day of administration, and every week over the 13-week test period after the first administration at a predetermined time (remaining feed measurement time) before administration of the test substance (on every Tuesday during the test period).

CN1C(=O)NC(=O)C1O (stereo not shown) [KBP-001, 5-hydroxy-1-methylimidazolidine-2,4-dione] gave a ΔsCr ([1]; high-dose 50 mg/kg for 2 months, 50 mg/kg) of -0.02 ± 0.22 mg/dL, a ΔsCr ([1]; high-dose 50 mg/kg for 2 months, listed as 5-hydroxy-1-methylimidazolidine-2,4-dione, 50 mg/kg) of -0.02 ± 0.22 mg/dL and a ΔsCr ([1]; highest-dose 100 mg/kg for 2 months, 100 mg/kg) of 0.07 ± 0.20 mg/dL. For the same compound, the ΔsCr ([1]; highest-dose 100 mg/kg for 2 months, listed as 5-hydroxy-1-methylimidazolidine-2,4-dione, 100 mg/kg) was 0.07 ± 0.20 mg/dL, the ΔsCr ([1]; low-dose 12.5 mg/kg for 2 months, 12.5 mg/kg) was 0.58 ± 0.49 mg/dL and the ΔsCr ([1]; low-dose 12.5 mg/kg for 2 months, listed as 5-hydroxy-1-methylimidazolidine-2,4-dione, 12.5 mg/kg) was 0.58 ± 0.49 mg/dL. For the same compound, the ΔsCr ([1]; medium-dose 25 mg/kg for 2 months, 25 mg/kg) was 0.10 ± 0.34 mg/dL, the ΔsCr ([1]; medium-dose 25 mg/kg for 2 months, listed as 5-hydroxy-1-methylimidazolidine-2,4-dione, 25 mg/kg) was 0.10 ± 0.34 mg/dL and the “general symptoms and deaths” value [2] was “no unusual symptoms (vomiting, salivation, diarrhea, behavioral abnormalities, etc.) or deaths occurred”. The Weight ([3]; 200 mg/kg repeated oral (G2), female, week 0, individual animals) was 9.6 (2×) and 9.1, the Weight, Mean ([3]; 200 mg/kg repeated oral (G2), female, week 0, mean) was 9.4 kg and the Weight ([3]; 200 mg/kg repeated oral (G2), female, week 1, individual animals, in kg (unit assumed)) was 9.5 and 9.3 and 9.9. The Weight, Mean ([3]; 200 mg/kg repeated oral (G2), female, week 1, mean) was 9.6 kg, the Weight ([3]; 200 mg/kg repeated oral (G2), female, week 2, individual animals, in kg (unit assumed)) was 9.4 and 9.2 and 9.8 and the Weight, Mean ([3]; 200 mg/kg repeated oral (G2), female, week 2, mean) was 9.5 kg. For the same compound, the Weight ([3]; 200 mg/kg repeated oral (G2), female, week 3, individual animals, in kg (unit assumed)) was 9.4 and 9.1 and 9.9, the Weight, Mean ([3]; 200 mg/kg repeated oral (G2), female, week 3, mean) was 9.5 kg and the Weight ([3]; 200 mg/kg repeated oral (G2), female, week 4, individual animals, in kg (unit assumed)) was 9.7 and 9.4 and 9.9. The Weight, Mean ([3]; 200 mg/kg repeated oral (G2), female, week 4, mean) was 9.7 kg, the Weight ([3]; 200 mg/kg repeated oral (G2), female, week 5, individual animals, in kg (unit assumed)) was 9.7 and 9.4 and 9.9 and the Weight, Mean ([3]; 200 mg/kg repeated oral (G2), female, week 5, mean) was 9.7 kg. The Weight ([3]; 200 mg/kg repeated oral (G2), female, week 6, individual animals) was 9.6 (2×) and 9.1, the Weight, Mean ([3]; 200 mg/kg repeated oral (G2), female, week 6, mean) was 9.4 kg and the Weight ([3]; 200 mg/kg repeated oral (G2), female, week 7, individual animals, in kg (unit assumed)) was 9.6 and 9.3 and 9.7. The Weight, Mean ([3]; 200 mg/kg repeated oral (G2), female, week 7, mean) was 9.5 kg, the Weight ([3]; 200 mg/kg repeated oral (G2), female, week 8, individual animals, in kg (unit assumed)) was 9.5 and 9.3 and 9.8 and the Weight, Mean ([3]; 200 mg/kg repeated oral (G2), female, week 8, mean) was 9.5 kg. For the same compound, the Weight ([3]; 200 mg/kg repeated oral (G2), female, week 9, individual animals, in kg (unit assumed)) was 9.6 and 9.4 and 9.9, the Weight, Mean ([3]; 200 mg/kg repeated oral (G2), female, week 9, mean) was 9.6 kg and the Weight ([3]; 200 mg/kg repeated oral (G2), female, week 10, individual animals, in kg (unit assumed)) was 9.6 and 9.3 and 10.0. The Weight, Mean ([3]; 200 mg/kg repeated oral (G2), female, week 10, mean) was 9.6 kg, the Weight ([3]; 200 mg/kg repeated oral (G2), female, week 11, individual animals) was 9.5 (2×) and 10.1 and the Weight, Mean ([3]; 200 mg/kg repeated oral (G2), female, week 11, mean) was 9.7 kg. The Weight ([3]; 200 mg/kg repeated oral (G2), female, week 12, individual animals, in kg (unit assumed)) was 9.6 and 9.5 and 10.0, the Weight, Mean ([3]; 200 mg/kg repeated oral (G2), female, week 12, mean) was 9.7 kg and the Weight ([3]; 200 mg/kg repeated oral (G2), female, week 13, individual animals, in kg (unit assumed)) was 9.7 and 9.5 and 10.2. For the same compound, the Weight, Mean ([3]; 200 mg/kg repeated oral (G2), female, week 13, mean) was 9.8 kg, the Weight ([3]; 200 mg/kg repeated oral (G2), female, week pre, individual animals) was 9.6 (2×) and 9.1 and the Weight, Mean ([3]; 200 mg/kg repeated oral (G2), female, week pre, mean) was 9.4 kg. The Weight ([3]; 200 mg/kg repeated oral (G2), male, week 0, individual animals) was 10.1 (2×) and 10.2, the Weight, Mean ([3]; 200 mg/kg repeated oral (G2), male, week 0, mean) was 10.1 kg and the Weight ([3]; 200 mg/kg repeated oral (G2), male, week 1, individual animals) was 10.1 (2×) and 10.2. For the same compound, the Weight, Mean ([3]; 200 mg/kg repeated oral (G2), male, week 1, mean) was 10.1 kg, the Weight ([3]; 200 mg/kg repeated oral (G2), male, week 2, individual animals, in kg (unit assumed)) was 9.9 and 10.1 and 10.0 and the Weight, Mean ([3]; 200 mg/kg repeated oral (G2), male, week 2, mean) was 10 kg. For the same compound, the Weight ([3]; 200 mg/kg repeated oral (G2), male, week 3, individual animals) was 10.0 and 10.1 (2×), the Weight, Mean ([3]; 200 mg/kg repeated oral (G2), male, week 3, mean) was 10.1 kg and the Weight ([3]; 200 mg/kg repeated oral (G2), male, week 4, individual animals) was 10.0 and 10.3 (2×). The Weight, Mean ([3]; 200 mg/kg repeated oral (G2), male, week 4, mean) was 10.2 kg, the Weight ([3]; 200 mg/kg repeated oral (G2), male, week 5, individual animals, in kg (unit assumed)) was 10.1 and 10.5 and 10.3 and the Weight, Mean ([3]; 200 mg/kg repeated oral (G2), male, week 5, mean) was 10.3 kg. The Weight ([3]; 200 mg/kg repeated oral (G2), male, week 6, individual animals, in kg (unit assumed)) was 10.0 and 10.1 and 10.3, the Weight, Mean ([3]; 200 mg/kg repeated oral (G2), male, week 6, mean) was 10.1 kg and the Weight ([3]; 200 mg/kg repeated oral (G2), male, week 7, individual animals) was 10.1 and 10.3 (2×). The Weight, Mean ([3]; 200 mg/kg repeated oral (G2), male, week 7, mean) was 10.2 kg, the Weight ([3]; 200 mg/kg repeated oral (G2), male, week 8, individual animals, in kg (unit assumed)) was 10.1 and 10.3 and 10.2 and the Weight, Mean ([3]; 200 mg/kg repeated oral (G2), male, week 8, mean) was 10.2 kg. For the same compound, the Weight ([3]; 200 mg/kg repeated oral (G2), male, week 9, individual animals, in kg (unit assumed)) was 10.1 and 10.4 and 10.3, the Weight, Mean ([3]; 200 mg/kg repeated oral (G2), male, week 9, mean) was 10.3 kg and the Weight ([3]; 200 mg/kg repeated oral (G2), male, week 10, individual animals, in kg (unit assumed)) was 10.2 and 10.4 and 10.3. For the same compound, the Weight, Mean ([3]; 200 mg/kg repeated oral (G2), male, week 10, mean) was 10.3 kg, the Weight ([3]; 200 mg/kg repeated oral (G2), male, week 11, individual animals, in kg (unit assumed)) was 10.1 and 10.4 and 10.3 and the Weight, Mean ([3]; 200 mg/kg repeated oral (G2), male, week 11, mean) was 10.3 kg. The Weight ([3]; 200 mg/kg repeated oral (G2), male, week 12, individual animals) was 10.2 (2×) and 10.4, the Weight, Mean ([3]; 200 mg/kg repeated oral (G2), male, week 12, mean) was 10.3 kg and the Weight ([3]; 200 mg/kg repeated oral (G2), male, week 13, individual animals) was 10.2 (2×) and 10.4. The Weight, Mean ([3]; 200 mg/kg repeated oral (G2), male, week 13, mean) was 10.3 kg, the Weight ([3]; 200 mg/kg repeated oral (G2), male, week pre, individual animals, in kg (unit assumed)) was 10.1 and 10.3 and 10.2 and the Weight, Mean ([3]; 200 mg/kg repeated oral (G2), male, week pre, mean) was 10.2 kg. It also gave a Weight, Mean ([3]; 500 mg/kg repeated oral (G3), female, week 0, mean) of 9.5 kg.
